# Results from patent publication US20060058504A1, “Peptides capable of inducing attraction to the axonal growth and their use for treating neurodegenerative diseases” (Centre National de la Recherche Scientific (CNRS), priority 2002, published 2006).
# Numbering of substitutions follows the chain as printed. In names and notes the source's numbering stands. Entries after “also recorded” stand apart in the source; their conditions may differ.
# B1: H210Q: L1Fc chimera with missense mutation H210Q in Ig domain 2 (protein)
# chain: IQIPEEYEGHHVMEPPVITEQSPRRLVVFPTDDISLKCEASGKPEVQFRWTRDGVHFKPKEELGVTVYQSPHSGSFTITGNNSNFAQRFQGIYRCFASNKLGTAMSHEIRLMAEGAPKWPKETVKPVEVEEGESVVLPCNPPPSAEPLRIYWMNSKILHIKQDERVTMGQNGNLYFANVLTSDNHSDYICQAHFPGTRTIIQKEPIDLRVKATNSMIDRKPRLLFPTNSSSHLVALQGQPLVLECIAEGFPTPTIKWLRPSGPMPADRVTYQNHNKTLQLLKVGEEDDGEYRCLAENSLGSARHAYYVTVEAAPYWLHKPQSHLYGPGETARLDCQVQGRPQPEVTWRINGIPVEELAKDQKYRIQRGALILSNVQPSDTMVTQCEARNRHGLLLANAYIYVVQLPAKILTADNQTYMAVQGSTAYLLCKAFGAPVPSVQWLDEDGTTVLQDERFFPYANGTLGIRDLQANDTGRYFCLAANDQNNVTIMANLKVKDATQITQGPRSTIEKKGSRVTFTCQASFDPSLQPSITWRGDGRDLQELGDSDKYFIEDGRLVIHSLDYSDQGNYSCVASTELDVVESRAQLLVVGSPGPVPRLVLSDLHLLTQSQVRVSWSPAEDHNAPIEKYDIEFEDKEMAPEKWYSLGKVPGNQTSTTLKLSPYVHYTFRVTAINKYGPGEPSPVSETVVTPEAAPEKNPVDVKGEGNETTNMVITWKPLRWMDWNAPQVQYRVQWRPQGTRGPWQEQIVSDPFLVVSNTSTFVPYEIKVQAVNSQGKGPEPQVTIGYSGEDYPQAIPELEGIEILNSSAVLVKWRPVDLAQVKGHLRGYNVTYWREGSQRKHSKRHIHKDHVVVPANTTSVILSGLRPYSSYHLEVQAFNGRGSGPASEFTFSTPEGVPGHPEALHLECQSNTSLLLRWQPPLSHNGVLTGYVLSYHPLDEGGKGQLSFNLRDPELRTHNLTDLSPHLRYRFQLQATTKEGPGEAIVREGGTMALSGISDFGNISATAGENYSVVSWVPKEGQCNFRFHILFKALGEEKGGASLSPQYVSYNQSSYTQWDLQPDTDYEIHLFKERMFRHQMAVKTNGTGRVRLPPAGFATE
# modifications: left off: a dimerising Fc or GST
# B2: A426D: L1Fc chimera with missense mutation A426D in Ig domain 5 (protein)
# chain: B1 chain with Q191H, A407D
# modifications: left off: a dimerising Fc or GST
# B3: E309K: L1Fc chimera with missense mutation E309K in Ig domain 3 (protein)
# chain: B1 chain with Q191H, E290K
# modifications: left off: a dimerising Fc or GST
# What was measured:
# [1] = test system: cortical axons repelled by Sema3A secreted from the ventral spinal cord; test: Co-culture of cortical slices and ventral spinal cord explants (axon guidance response to Sema3A); format: cell-based, mice; settings: for Axonal length, Away / Number of axons, Away / Axonal length, Towards / Number of axons, Towards: Ctx/vSC co-culture, L1Fc 3 μg/ml, ODQ 10^−5 M; for Axonal length, Away / Number of axons, Away: growth away from spinal cord explant; for Axonal length, Towards / Number of axons, Towards: growth towards spinal cord explant; for effect of inhibitor on L1Fc-induced switch of Sema3A repulsion to attraction: inhibitor combined with L1Fc 3 μg/ml; for guidance index: qualitative index from −2 (repulsion) to +2 (attraction), L1Fc chimeras 3 μg/ml, ODQ 10^−5M; for conversion of Sema3A-induced chemorepulsion into attraction by peptide: peptide at 10^−6M; for switching of Sema3A repulsion to attraction by L1Fc chimera: chimera 3 μg/ml in culture medium
# Procedure: Blocks of cortex were dissected from P0 (postnatal day 0) to P2 mice and cut into 250 μm thick slices with a McIlwain tissue chopper. The ventral part of the cervical spinal cord was dissected and cut into 250 μm thick slices. Co-culture of cortical slices and ventral spinal cord explants were performed in a three-dimensional plasma clot, as described previously (Castellani et al., 2000). Cortical slices were oriented in the plasma clot as indicated in FIG. 1B to give to axons equivalent chances to be deflected away or towards the spinal cord explant. Purified wild-type or mutant L1Fc chimeras were added to the culture medium (3 μg/ml). Inhibitors of the guanylyl cyclase (ODQ, 10^−5 M, Sigma) and NOS (7NI, […], Sigma) were added to the culture medium, either alone or with wild-type L1Fc (3 μg/ml). After one or two days in vitro (DIV), the cultures were fixed with 4% paraformaldehyde (PFA) and analyzed by phase contrast microscopy (Axiovert 35-M, Zeiss). A qualitative guidance index was attributed to the co-cultures, to assess the degree of repulsive (negative values) or attractive (positive values) effects (Castellani et al., 2000). The index ranged from −2 (when most fibers grew away from the spinal cord explant) to +2 (when most fibers grew towards the explant), with intermediate situations (index of −1 and +1 for moderate guidance effects). An index of zero was attributed to the cultures showing no preferential growth. Quantitative analysis of axon length and number of axons growing from cortical slices was performed as described previously (Castellani et al., 2000). A proximal and a distal region, each of them covering a 600 μm-piece of cortical tissue were determined for each culture. All fibers extending from these two regions were counted and the length of the three longest fibers was measured, using computer analysis software (Visiolab 2000, Biocom). Immunofluorescence labeling of axons was performed using the mouse anti-phosphorylated neurofilament antibody SMI31 (Stemberger and Meyer Inc.), and Texas red-conjugated secondary anti-mouse antibody (see result obtained for number of axons and axonal length in the following tables 1 and 2).
# It has been previously developed an assay system using explants of ventral spinal cord co-cultured with cortical axons in order to determine the factors involved in axonal repulsion and attraction (Castellani et al., 2000). Using this system we have shown that Sema3A secreted from the ventral spinal cord repels cortical axons. In the presence of soluble wild-type L1Fc chimeric protein however, repulsion is switched to attraction (Castellani et al., […]). In the present study, we aimed to identify the L1 interactions underlying the switching process. As Ig domains have been implicated in binding of Ig CAMs to many of their ligands (Brümmendorf and Rathjen, 1996) we hypothesized that they would also be required for L1 Fc-mediated switching. […] L1 Fc chimeras containing pathological missense mutations affecting specific Ig domains (De Angelis et al., 1999 and FIGS. 1A, 1B) were assessed for their ability to reverse Sema3A repulsion to attraction.
# full length human L1 = molecular target: T1, full length human L1 (Homo sapiens, UniProt P32004); test: Binding of L1Fc chimeras to COS cells expressing wild-type L1 (immunofluorescence)
# T1 construct: transiently transfected with expression vectors encoding full length human L1; expressed in transfected cells; host or cells: COS7
# Procedure: (§1) The mutant L1Fc chimeras were produced and purified as described previously (De Angelis et al., 1999). Briefly, COS-7 cells were transiently transfected with 10 μg DNA per 150 mm culture dish, the soluble Fc chimeric protein was allowed to accumulate in the media for 6 days and was recovered and purified by protein A-Sepharose affinity chromatography. In the binding experiments, L1Fcs were cross-linked to anti-human Fc antibodies (50 μg/ml, Jackson Immunoresearch) for 1 hr at 37° C. Binding detection to NP-1 requested concentrations of L1Fcs 10 folds higher than L1. Antibody conjugated L1-Fc protein was then incubated with monolayers of COS7 cells transiently transfected with expression vectors encoding full length human L1 or myc-tagged NP-1 where the cytoplasmic domain is deleted (gift of J. Raper, 2000 and Renzi et al., 1999). Following incubation, the cells were fixed with 4% PFA, and processed for double-immunofluorescence detection. NP-1 was detected using a mouse anti-c myc antibody (clone 9E10, Sigma) and L1 using a rat monoclonal anti-L1 antibody. Secondary antibody anti-c-myc (Texas-red conjugated anti-mouse antibodies) was used to detect NP-1, anti-L1 (Texas red conjugated anti-rat antibodies) to detect L1, and anti-Fc (FITC conjugated anti-rabbit antibodies) to detect bound L1Fc chimeras. After secondary antibody incubation, the cells were washed with PBS and mounted in Mowiol (Calbiochem).
# Thus, Ig CAMs F3 and TAG-1 (the rodent homologue of axonin-1) ate unlikely to be axonal receptors for L1Fc in the reversion process. […] In the present study however, mutated L1Fc proteins were required to interact with wild-type L1 expressed on growth cones. To formally exclude a role for homophilic binding of L1 in the initiation of the reversion process, it was therefore necessary to examine whether homophilic binding of the mutated L1Fc chimeras to wild-type L1 was also disrupted. Mutated L1Fcs were therefore incubated with COS7 cells transfected with full-length wild-type L1 cDNA and binding was assessed by immunofluorescence. In parallel, homophilic binding of mutant/mutant and mutant/wild-type L1Fcs was compared in a two-color FACS aggregation assay, allowing a quantitative assessment to be made (see Methods). […] Similarly, in the two color FACS assay homophilic binding was restored to 74.4% and 90.5% of wild-type levels for A426D and H210Q respectively (FIG. 2B). […] This mutation however still promoted the L1 Fc induced switching of Sema3A repulsion to attraction in the co-culture assay. Thus, the ability of L1Fc to switch Sema3A repulsion is not dependent on homophilic binding. Consequently, the trans interaction of L1Fc with L1 in the receptor complex is not required for the change in growth cone responsiveness to Sema3A.
# NP-1 = test: Binding of L1Fc chimeras to NP-1 expressing COS7 cells (immunofluorescence)
# Procedure: as §1
# Next, we examined the ability of the mutant L1 Fc chimeras to bind NP-1. COS7 cells were transfected with a vector encoding the extracellular and transmembrane domains of NP-1 fused to a myc tag (ANP-1, Renzi et al., J. Neurosci., 15:7870-7880, 1999), and incubated with the mutant L1Fc chimeras. Binding was detected by immunofluorescence. […] Binding of L120V, G121S and A426D L1Fcs to NP-1 is illustrated in FIG. 3.
# L1 = settings: mutant bound to itself; cited from earlier work
# F3, axonin-1 and TAX-1 = settings: F3, axonin-1 (and TAX-1 where stated); cited from earlier work
# T1 sequence (P32004 20-1257): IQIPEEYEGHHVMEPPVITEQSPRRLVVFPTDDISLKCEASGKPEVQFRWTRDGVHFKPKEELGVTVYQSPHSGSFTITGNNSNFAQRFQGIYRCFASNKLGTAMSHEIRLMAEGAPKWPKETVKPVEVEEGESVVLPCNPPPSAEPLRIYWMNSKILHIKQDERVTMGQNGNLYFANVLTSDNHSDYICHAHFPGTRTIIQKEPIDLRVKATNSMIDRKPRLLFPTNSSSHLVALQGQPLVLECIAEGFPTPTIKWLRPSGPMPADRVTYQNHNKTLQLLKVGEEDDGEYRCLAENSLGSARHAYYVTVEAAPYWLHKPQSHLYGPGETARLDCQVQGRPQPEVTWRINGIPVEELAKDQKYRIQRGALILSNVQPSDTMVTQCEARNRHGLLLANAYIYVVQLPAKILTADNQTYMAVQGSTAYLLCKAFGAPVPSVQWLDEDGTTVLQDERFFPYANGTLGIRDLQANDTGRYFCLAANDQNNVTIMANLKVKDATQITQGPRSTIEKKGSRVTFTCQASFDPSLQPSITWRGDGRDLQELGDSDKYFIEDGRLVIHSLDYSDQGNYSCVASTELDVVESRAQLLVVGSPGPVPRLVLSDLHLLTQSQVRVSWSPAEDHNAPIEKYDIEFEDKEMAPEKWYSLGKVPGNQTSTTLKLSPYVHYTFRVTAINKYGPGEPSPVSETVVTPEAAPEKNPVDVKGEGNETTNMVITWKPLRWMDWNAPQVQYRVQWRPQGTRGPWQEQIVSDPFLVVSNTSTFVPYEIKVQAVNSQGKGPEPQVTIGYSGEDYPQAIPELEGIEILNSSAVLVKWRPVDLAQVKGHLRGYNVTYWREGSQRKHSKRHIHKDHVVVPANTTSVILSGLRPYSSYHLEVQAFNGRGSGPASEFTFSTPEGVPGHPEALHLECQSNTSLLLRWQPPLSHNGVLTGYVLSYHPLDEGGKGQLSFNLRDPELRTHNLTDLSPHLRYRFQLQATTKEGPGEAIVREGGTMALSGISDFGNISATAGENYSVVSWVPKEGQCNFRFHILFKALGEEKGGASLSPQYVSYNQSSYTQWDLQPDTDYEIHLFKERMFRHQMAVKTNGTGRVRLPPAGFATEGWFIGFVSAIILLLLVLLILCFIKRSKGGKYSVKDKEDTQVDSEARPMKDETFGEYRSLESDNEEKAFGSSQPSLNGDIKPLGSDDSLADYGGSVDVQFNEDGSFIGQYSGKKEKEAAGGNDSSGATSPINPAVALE
molecule,measurement,setting,value
"O=c1onc2cnc3ccccc3n12 [ODQ, 1H-(1,2,4)oxadiazolo(4,3-a)quinoxalin-1-one, reference compound]","Axonal length, Away",[1],384.1 +/− 7
same,"Number of axons, Away",[1],25.2 +/− 1.8
same,"Axonal length, Towards",[1],"206.9 +/− 8, *"
same,"Number of axons, Towards",[1],"5.1 +/− 0.5, *^"
same,effect of inhibitor on L1Fc-induced switch of Sema3A repulsion to attraction,[1],reversion was prevented; also recorded: prevented the L1 Fc induced switching of Sema3A from repulsion to attraction
same,guidance index,[1],−1.6
"O=[N+]([O-])c1cccc2cn[nH]c12 [7NI, 7 nitroindazole, reference compound]","Axonal length, Away",[1],407.6 +/− 5
same,"Number of axons, Away",[1],25.6 +/− 1.6
same,"Axonal length, Towards",[1],"203.1 +/− 6, *"
same,"Number of axons, Towards",[1],"5 +/− 0.6, *"
same,effect of inhibitor on L1Fc-induced switch of Sema3A repulsion to attraction,[1],did block L1Fc-mediated chemoattraction; also recorded: prevented the L1 Fc induced switching of Sema3A from repulsion to attraction
same,guidance index,[1],−1.6
FASNKLGTAM (Description of the Artificial sequence Derived from the human amino-acid sequence of L1 Ig1 domain) [ten amino-acid peptide from L1 Ig1 domain],conversion of Sema3A-induced chemorepulsion into attraction by peptide,[1],successfully converted Sema3A-induced chemorepulsion into attraction
"ASNKL (Description of the Artificial sequence Derived from the human amino-acid sequence of L1 Ig1 domain) [ASNKL120, five amino-acid peptide from L1 Ig1 domain]",conversion of Sema3A-induced chemorepulsion into attraction by peptide,[1],successfully converted Sema3A-induced chemorepulsion into attraction
B1,switching of Sema3A repulsion to attraction by L1Fc chimera,[1],able to reverse Sema3A repulsion to attraction; also recorded: efficiently induce switching of Sema3A repulsion to attraction
same,binding to wild-type L1 expressed in COS cells,full length human L1,bound to wild-type L1
same,binding to NP-1 expressing cells,NP-1,bound NP-1 expressing cells
same,effect of mutation on homophilic binding,L1,affect homophilic
B2,switching of Sema3A repulsion to attraction by L1Fc chimera,[1],able to reverse Sema3A repulsion to attraction; also recorded: efficiently induce switching of Sema3A repulsion to attraction; also recorded: switched Sema3A from repulsion to attraction to the same extent as wild type L1Fc
same,binding to wild-type L1 expressed in COS cells,full length human L1,bound to wild-type L1
same,binding to NP-1 expressing cells,NP-1,bound to NP-1 expressing cells
same,effect of mutation on homophilic binding,L1,reduce homophilic binding
same,effect of mutation on heterophilic binding,"F3, axonin-1 and TAX-1",reduce
B3,switching of Sema3A repulsion to attraction by L1Fc chimera,[1],able to reverse Sema3A repulsion to attraction; also recorded: efficiently induce switching of Sema3A repulsion to attraction; also recorded: switched Sema3A from repulsion to attraction to the same extent as wild type L1Fc
same,binding to NP-1 expressing cells,NP-1,bound NP-1 expressing cells
same,effect of mutation on heterophilic binding,"F3, axonin-1 and TAX-1",affect
